From patent US20230303572A1, “18-MC SALT FORMS” (Mind Medicine, Inc., priority 2022, published 2023)
Counter-ions that a name gives are not always drawn.

Experiments:
[1] = Heating experiments and VT-XRPD (N2 drying, heating, cooling back): form change; assay type: physicochemical; details: for form conversion, summary statement: after desolvation
Source text: (§1) For XRPD analysis, a PANalytical Empyrean and X′ Pert3 X-ray powder diffract meter was used.

[2] = Physical form stability on storage at RT, air drying or exposure to ambient conditions (XRPD); assay type: physicochemical
Source text: as §1

[3] = Relative thermodynamic stability of HCl salt forms (desolvation and form conversion data); assay type: physicochemical
Method: Starting from HCl salt materials with different forms, a total of 100 polymorph screening experiments was performed using different crystallization methods including salt formation by liquid vapor diffusion/slurry at elevated temperature, evaporation at RT/high temperatures, slurry and reverse anti-solvent addition at different temperatures, slow/crash cooling, polymer induced crystallization and grinding. All the resulting solids were isolated for XRPD test, and new forms were further characterized by TGA, DSC, ^1H NMR and HPLC/ IC.
An additional polymorph screening was performed for 18-MC HCl salt.

[4] = test system: cocaine-seeking or "craving" behaviors; details: animal model; cited from earlier work
[5] = test system: substance use models (nicotine, alcohol, morphine, cocaine and methamphetamine); details: animal studies; dosages as low as 10 mg/kg i.p.; cited from earlier work

| SMILES | form change after N2 drying (VT-XRPD) ([1]; N2-drying for 20 min at 30° C.) | form conversion, summary statement [1] | form change after heating (XRPD/VT-XRPD) ([1]; heating to 100° C.) | form change after heating (VT-XRPD) ([1]; heating to 180° C. under N2 protection) | form change after storage (XRPD) ([2]; storage at RT for ~3 days) | Form after desolvation ([3]; RT storage or heat to 100° C. under N2) | effect on cue-induced cocaine-seeking [4] | effect on drug self-administration [5] | form change after heating (XRPD) ([1]; heating to 150° C.) | change after air drying ([2]; air drying at RT, time not stated) | Form after desolvation ([3]; solvates of HCl salt, form after desolvation) |
| --- | --- | --- | --- | --- | --- | --- | --- | --- | --- | --- | --- |
| COCC[C@H]1CC2CN3CCc4c([nH]c5ccccc45)[C@](C(=O)OC)(C2)[C@H]13 [HCl salt Type M, 18-methoxycoronaridine] | no form change | converted to HCl salt Type A | peaks of HCl salt Type A were observed | most diffraction peaks were consistent with HCl salt Type A with extra peak similar to HCl salt Type K | extra peaks of HCl salt Type A | HCl salt Type A** |  |  |  |  |  |
| COCC[C@H]1CC2CN3CCc4c([nH]c5ccccc45)[C@](C(=O)OC)(C2)[C@H]13 [18-MC, 18-methoxycoronaridine] |  |  |  |  |  |  | attenuate effects of the environmental cues | significantly reduces drug self-administration |  |  |  |
| COCC[C@H]1CC2CN3CCc4c([nH]c5ccccc45)[C@](C(=O)OC)(C2)[C@H]13 [HCl salt Type S, 18-methoxycoronaridine] |  | converted to HCl salt Type A |  |  |  |  |  |  | most diffraction peaks were consistent with HCl salt Type A | turned to be gel like | HCl salt Type A |
